Data published in PMC5909127, “Optimization of a “bump-and-hole” approach to allele-selective BET bromodomain inhibition” (Chemical Science, 2018).

Legend:
[1] = biological target: T1, BRD3 BD1 L/V (Homo sapiens, UniProt Q15059, L70V); test: competitive AlphaLISA; format: binding
[2] = biological target: T2, BRD3 BD2 L/V (Homo sapiens, UniProt Q15059, L345V); test: competitive AlphaLISA; format: binding
[3] = biological target: BRD2: WT/LV (Homo sapiens, UniProt P25440, L383V); test: ITC, BRD2 tandem construct
Chain of BRD2: WT/LV (P25440 73-455 L383V): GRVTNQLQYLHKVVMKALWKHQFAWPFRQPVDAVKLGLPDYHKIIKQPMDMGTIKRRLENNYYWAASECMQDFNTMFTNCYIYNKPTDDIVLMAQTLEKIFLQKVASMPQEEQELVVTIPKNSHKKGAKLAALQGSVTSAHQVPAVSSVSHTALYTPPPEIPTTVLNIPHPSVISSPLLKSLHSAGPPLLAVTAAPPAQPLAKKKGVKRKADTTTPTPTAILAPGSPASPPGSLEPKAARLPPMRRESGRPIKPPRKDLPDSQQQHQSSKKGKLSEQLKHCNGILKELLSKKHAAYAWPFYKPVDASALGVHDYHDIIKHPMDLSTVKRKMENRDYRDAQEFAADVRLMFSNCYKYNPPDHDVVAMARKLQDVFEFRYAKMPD

[4] = in vitro; conditions: PAMPA, pH 7.4
[5] = biological target: BRD2: WT/WT (Homo sapiens, UniProt P25440); test: ITC, BRD2 tandem construct
Chain of BRD2: WT/WT (P25440 73-455): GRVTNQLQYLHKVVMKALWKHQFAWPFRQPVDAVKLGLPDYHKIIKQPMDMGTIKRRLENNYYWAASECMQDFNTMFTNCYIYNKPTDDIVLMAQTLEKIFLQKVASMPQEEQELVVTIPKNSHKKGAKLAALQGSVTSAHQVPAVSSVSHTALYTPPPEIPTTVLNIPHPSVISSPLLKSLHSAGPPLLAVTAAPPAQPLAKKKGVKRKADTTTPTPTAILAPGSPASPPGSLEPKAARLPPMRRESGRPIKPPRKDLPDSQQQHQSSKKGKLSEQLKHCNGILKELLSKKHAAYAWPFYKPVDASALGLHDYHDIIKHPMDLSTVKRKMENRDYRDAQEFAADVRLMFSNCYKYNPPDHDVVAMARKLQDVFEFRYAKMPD

[6] = Plasma Half-life; conditions: BALB/c, mouse, pH 7.4
[7] = biological target: T3, BRD4 BD1 L/V (Homo sapiens, UniProt O60885, L94V); test: competitive AlphaLISA; format: binding; conditions: AlphaLISA pIC50 Value BRD4 BD1 L/V
[8] = biological target: T4, BRD2 BD2 L/V (Homo sapiens, UniProt P25440, L383V); test: ITC; format: binding
T4 sequence (P25440 344-455 L383V): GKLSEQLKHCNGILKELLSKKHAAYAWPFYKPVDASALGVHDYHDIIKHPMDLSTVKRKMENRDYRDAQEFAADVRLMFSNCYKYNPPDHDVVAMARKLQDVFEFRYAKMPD

[9] = biological target: T5, BRD3 BD1 WT (Homo sapiens, UniProt Q15059); test: competitive AlphaLISA; format: binding
T5 sequence (Q15059 24-144): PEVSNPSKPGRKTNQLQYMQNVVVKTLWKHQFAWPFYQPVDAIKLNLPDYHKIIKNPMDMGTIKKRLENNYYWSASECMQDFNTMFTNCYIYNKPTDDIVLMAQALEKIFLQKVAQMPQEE

[10] = biological target: T6, BRD4 BD2 L/V (Homo sapiens, UniProt O60885, L387V); test: ITC; format: binding
[11] = biological target: T2, BRD3 BD2 L/V; test: ITC; format: binding
[12] = biological target: T7, BRD4 BD1 WT (Homo sapiens, UniProt O60885); test: competitive AlphaLISA; format: binding; conditions: AlphaLISA pIC50 Value BRD4 BD1 WT
[13] = biological target: BRD2: LV/WT (Homo sapiens, UniProt P25440, L110V); test: ITC, BRD2 tandem construct
Chain of BRD2: LV/WT (P25440 73-455 L110V limits assumed): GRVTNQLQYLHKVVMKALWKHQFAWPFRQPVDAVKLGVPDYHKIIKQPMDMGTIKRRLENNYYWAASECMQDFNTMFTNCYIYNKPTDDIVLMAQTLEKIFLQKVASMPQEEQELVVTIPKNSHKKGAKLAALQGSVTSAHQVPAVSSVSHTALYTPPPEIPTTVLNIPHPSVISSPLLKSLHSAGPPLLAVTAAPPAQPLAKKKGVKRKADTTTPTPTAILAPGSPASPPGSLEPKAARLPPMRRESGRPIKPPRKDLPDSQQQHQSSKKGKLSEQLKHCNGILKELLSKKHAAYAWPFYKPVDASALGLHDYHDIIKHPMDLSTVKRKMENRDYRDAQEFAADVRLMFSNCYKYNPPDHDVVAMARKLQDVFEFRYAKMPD

[14] = tested on: L/V somatic BET bromodomains; test: ITC; conditions: L/V minus WT
[15] = tested on: L/V BET bromodomains (BD1 and BD2 of BRD2, BRD3 and BRD4); test: competitive AlphaLISA (Bio-JQ1 displacement); format: binding, human; conditions: L/V minus WT
[16] = biological target: T8, BRD2 BD2 WT (Homo sapiens, UniProt P25440); test: ITC; format: binding
T8 sequence (P25440 344-455): as the sequence (P25440 344-455 L383V) above, with V40L counted along it

[17] = biological target: T6, BRD4 BD2 L/V; test: competitive AlphaLISA; format: binding
[18] = biological target: BRD4 BD2 WT (Homo sapiens, UniProt O60885); test: ITC; format: binding
[19] = biological target: T7, BRD4 BD1 WT; test: ITC; format: binding
[20] = biological target: BRD2: LV/LV (Homo sapiens, UniProt P25440, L110V/L383V); test: ITC, BRD2 tandem construct
Chain of BRD2: LV/LV (P25440 73-455 L110V/L383V limits assumed): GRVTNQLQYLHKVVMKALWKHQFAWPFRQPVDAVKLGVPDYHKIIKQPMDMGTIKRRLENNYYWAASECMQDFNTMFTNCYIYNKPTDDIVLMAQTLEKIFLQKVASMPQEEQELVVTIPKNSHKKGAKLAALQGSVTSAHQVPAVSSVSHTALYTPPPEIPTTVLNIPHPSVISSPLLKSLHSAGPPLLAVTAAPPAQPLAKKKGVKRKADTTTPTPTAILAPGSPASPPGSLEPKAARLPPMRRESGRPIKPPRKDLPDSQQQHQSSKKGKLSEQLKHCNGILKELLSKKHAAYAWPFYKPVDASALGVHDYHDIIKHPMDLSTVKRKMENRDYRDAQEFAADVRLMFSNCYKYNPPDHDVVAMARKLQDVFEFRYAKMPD

[21] = biological target: T1, BRD3 BD1 L/V; test: ITC; format: binding
[22] = biological target: T9, BRD2 BD1 L/V (Homo sapiens, UniProt P25440, L110V); test: competitive AlphaLISA; format: binding
T9 sequence (P25440 71-176 L110V limits assumed): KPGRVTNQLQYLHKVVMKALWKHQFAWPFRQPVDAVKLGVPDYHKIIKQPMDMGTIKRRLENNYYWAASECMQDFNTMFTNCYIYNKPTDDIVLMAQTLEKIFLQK

[23] = biological target: T4, BRD2 BD2 L/V; test: competitive AlphaLISA; format: binding
[24] = biological target: T9, BRD2 BD1 L/V; test: ITC; format: binding
[25] = biological target: BRDT BD1 L/V (Homo sapiens, UniProt Q58F21, L63V); test: competitive AlphaLISA; format: binding
[26] = biological target: T10, BRD3 BD2 WT (Homo sapiens, UniProt Q15059); test: competitive AlphaLISA; format: binding
T10 sequence (Q15059 306-416): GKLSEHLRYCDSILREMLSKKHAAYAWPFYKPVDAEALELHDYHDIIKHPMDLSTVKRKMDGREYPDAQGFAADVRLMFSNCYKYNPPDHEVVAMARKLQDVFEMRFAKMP

[27] = biological target: BRDT BD2 WT (Homo sapiens, UniProt Q58F21); test: competitive AlphaLISA; format: binding
[28] = Intrinsic Clearance; conditions: mouse liver microsomes
[29] = biological target: T10, BRD3 BD2 WT; test: ITC; format: binding
[30] = biological target: T8, BRD2 BD2 WT; test: competitive AlphaLISA; format: binding
[31] = biological target: WT BET bromodomains (BD1 and BD2 of BRD2, BRD3 and BRD4); test: competitive AlphaLISA (Bio-JQ1 displacement); format: binding, human; conditions: mean and SD of all somatic bromodomains; active enantiomer concentration
[32] = biological target: BRD2 BD1 WT (Homo sapiens, UniProt P25440); test: ITC; format: binding; conditions: ITC
Chain of BRD2 BD1 WT (P25440 71-176): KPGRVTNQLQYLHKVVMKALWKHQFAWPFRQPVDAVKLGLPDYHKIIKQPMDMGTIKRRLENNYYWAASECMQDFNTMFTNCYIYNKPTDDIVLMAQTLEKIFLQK

[33] = biological target: T5, BRD3 BD1 WT; test: ITC; format: binding
[34] = biological target: WT somatic BET bromodomains; test: ITC; conditions: mean and SD of all somatic bromodomains
[35] = biological target: BRDT BD1 WT (Homo sapiens, UniProt Q58F21); test: competitive AlphaLISA; format: binding
[36] = biological target: T3, BRD4 BD1 L/V; test: ITC; format: binding; conditions: ITC

T2 sequence (Q15059 306-416 L345V limits assumed): as the sequence (Q15059 306-416) above, with L40V counted along it
T1 sequence (Q15059 24-144 L70V limits assumed): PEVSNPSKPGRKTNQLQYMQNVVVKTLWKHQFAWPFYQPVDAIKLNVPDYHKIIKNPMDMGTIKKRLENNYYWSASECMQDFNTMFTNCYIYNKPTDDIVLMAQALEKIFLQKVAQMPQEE

Structure (SMILES): CC[C@@H](C(=O)OC)[C@@H]1N=C(c2ccc(Cl)cc2)c2cc(OC)ccc2-n2c(C)nnc21 (relative stereo) [Compound 4]
- IC50 [1]: 100 nM
- IC50 [2]: 100 nM
- Kd [3]: 620 ± 110 nM
- Papp [4]: 15.3 ×10⁻⁶ cm/s
- Kd [5]: 3800 ± 1100 nM
- half-life at 50 µM [6]: > 3 h
- IC50 [7]: 251 nM
- Kd [8]: 50 nM
- ΔH BRD2 BD2 L/V ([8]; ITC): -8.5 kcal/mol
- IC50 [9]: 6310 nM
- Kd [10]: 330 nM
- ΔH BRD4 BD2 L/V ([10]; ITC): -7.9 kcal/mol
- Kd [11]: 100 nM
- ΔH BRD3 BD2 L/V ([11]; ITC): -9.5 kcal/mol
- IC50 [12]: 7940 nM
- Kd [13]: 570 ± 50 nM
- ITC pKd ± SD Δ [14]: 1.8 ± 0.4
- AlphaLISA pIC50 ± SD Δ [15]: 1.7 ± 0.2
- Kd [16]: 3300 nM
- ΔH BRD2 BD2 WT ([16]; ITC): -1.2 kcal/mol
- N BRD2 BD2 WT ([16]; ITC stoichiometry): 0.91
- IC50 [17]: 251 nM
- Kd [18]: 35000 nM
- ΔH BRD4 BD2 WT ([18]; ITC): -3.4 kcal/mol
- Kd [19]: 2500 nM
- ΔH BRD4 BD1 WT ([19]; ITC): -2.6 kcal/mol
- N BRD4 BD1 WT ([19]; ITC stoichiometry): 0.99
- Kd [20]: 140 ± 10 nM
- Kd [21]: 80 nM
- ΔH BRD3 BD1 L/V ([21]; ITC): -14.1 kcal/mol
- IC50 [22]: 316 nM
- IC50 [23]: 158 nM
- Kd [24]: 240 nM
- ΔH BRD2 BD1 L/V ([24]; ITC): -12.6 kcal/mol
- IC50 [25]: 501 nM
- IC50 [26]: 10000 nM
- IC50 [27]: 15800 nM
- CL int [28]: 1.5 ml min^–1 g^–1
- ΔH BRD3 BD2 WT ([29]; ITC): -3.8 kcal/mol
- N BRD3 BD2 WT ([29]; ITC stoichiometry): 0.85
- IC50 [30]: 10000 nM
- AlphaLISA pIC50 ± SD WT [31]: 5.0 ± 0.1
- ΔH BRD2 BD1 WT [32]: -5.3 kcal/mol
- Kd [33]: 3300 nM
- ΔH BRD3 BD1 WT ([33]; ITC): -4.9 kcal/mol
- N BRD3 BD1 WT ([33]; ITC stoichiometry): 0.81
- ITC pKd ± SD WT [34]: 5.1 ± 0.5
- IC50 [35]: 15800 nM
- ΔH BRD4 BD1 L/V [36]: -10.3 kcal/mol
- Kd ([36]; Kd BRD4 BD1 L/V, 30°C): 160 nM
